Consider 13 compounds from PubChem BioAssay (NCI).

Among the test systems are A498 renal; HOP-62 NSCLC; IGROV1 ovarian; MOLT-4 leukemia; SK-MEL-5 melanoma; TK-10 renal; UO-31 renal; CCRF-CEM leukemia.
Holding throughout (assay): DTP human tumour cell line panel, 48 h

Structures are written as SMILES.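 Cultured in 96-well plates, cells were exposed to test compound for 48 hours across five concentrations. The concentration for 50% growth inhibition is given as GI50. TGI: total growth inhibition.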 Where only a bound is given, the exact number is not on record here.

Usually TGI stands for the concentration giving total growth inhibition. Low values mean more potent growth arrest, high ones less potent growth arrest. For `CO[C@@]1(c2ccccc2)O[C@H]2OCCC2[C@H]1c1ccc(Cl)cc1` (stereo partly specified), the TGI is 53.3 µM in the test with A498 renal; greater than 100 µM in the test on HOP-62 NSCLC; greater than 100 µM with IGROV1 ovarian; 92.7 µM in the test with MOLT-4 leukemia; 33.1 µM with SK-MEL-5 melanoma; greater than 100 µM in the test with TK-10 renal. For the same compound, the TGI in the test on UO-31 renal was found to be 90.4 µM.
In the case of `CCC(CO)Nc1nc2c(c(=O)n(C)c(=O)n2C)n1CCO` (stereo unspecified), the TGI with IGROV1 ovarian, in the test with MOLT-4 leukemia, with SK-MEL-5 melanoma, in the test with TK-10 renal and in the test with UO-31 renal was greater than 100 µM in each case.
One may read the GI50 as the concentration at which growth is held to half of that of the control. Take `C1=CCCC=CCC1.C[PH+](C)C.C[PH+](C)C.C[PH+](C)C.[Cl-].[Ir]`: the GI50 in the test on CCRF-CEM leukemia is 19.4 µM; with HOP-62 NSCLC it was greater than 100 µM; in the test with IGROV1 ovarian, 36.3 µM; in the test on MOLT-4 leukemia it was 30.2 µM; in the test with SK-MEL-5 melanoma it was 70 µM; in the test on TK-10 renal, greater than 100 µM. Further, the GI50 with UO-31 renal was greater than 100 µM. For the same compound, the total growth inhibition concentration (TGI) is 71.7 µM with CCRF-CEM leukemia; greater than 100 µM in the test with HOP-62 NSCLC; greater than 100 µM with IGROV1 ovarian; greater than 100 µM in the test on MOLT-4 leukemia; greater than 100 µM in the test on SK-MEL-5 melanoma; greater than 100 µM with TK-10 renal. The TGI in the test on UO-31 renal was greater than 100 µM.
Regarding `COc1cc2cnc3c4cc(OCc5ccccc5)ccc4ccc3c2cc1OC`, the TGI with CCRF-CEM leukemia is 17.3 µM; with HOP-62 NSCLC, 76.5 µM; in the test on IGROV1 ovarian it was greater than 100 µM; with MOLT-4 leukemia, 30.9 µM; with SK-MEL-5 melanoma, 76 µM; in the test on TK-10 renal, 44 µM. In addition, the concentration for total growth inhibition (TGI) with UO-31 renal is greater than 100 µM.
Take `COC(=O)CC[C@]12C[C@]13CC[C@]1(C)C4C(C)C[C@]5(CC(C)C(=O)O5)OC4CC1(C)C3CCC2C(C)(C)O` (stereo partly specified): the concentration for total growth inhibition (TGI) in the test on A498 renal, in the test with HOP-62 NSCLC, in the test on IGROV1 ovarian, with SK-MEL-5 melanoma, with TK-10 renal and with UO-31 renal was greater than 100 µM in each case.
As to `O=c1c2cc3ccccc3n2c(=O)c2cc3ccccc3n12`, the total growth inhibition concentration (TGI) in the test on A498 renal, in the test on CCRF-CEM leukemia, with MOLT-4 leukemia, with SK-MEL-5 melanoma, in the test with TK-10 renal and in the test on UO-31 renal was greater than 100 µM each time.
As for `CC1=CCCC2C(C=O)(C1)CC(C)C2(CO)CC/C(=C/CO)CO` (stereo unspecified), the TGI in the test on A498 renal, in the test on CCRF-CEM leukemia, in the test with IGROV1 ovarian, with MOLT-4 leukemia, in the test with SK-MEL-5 melanoma and with TK-10 renal was greater than 100 µM throughout. Also, the concentration for total growth inhibition (TGI) with UO-31 renal was 82.8 µM.
As to `CC1c2[nH]c3ccccc3c2CCN1O` (stereo unspecified), the total growth inhibition concentration (TGI) with A498 renal, with CCRF-CEM leukemia, in the test on IGROV1 ovarian, in the test on MOLT-4 leukemia, in the test on SK-MEL-5 melanoma and with TK-10 renal was greater than 100 µM each time. Also, in the test on UO-31 renal, the concentration for total growth inhibition (TGI) was greater than 100 µM.
For `COc1cc(/C=C2\CCCC3=C2N=C2SC(C)=NN2C3c2cc(OC)c(OC)c(OC)c2)cc(OC)c1OC` (stereo unspecified), the GI50 with A498 renal was 0.153 µM; with HOP-62 NSCLC, greater than 100 µM; in the test on MOLT-4 leukemia it was 0.391 µM; in the test on TK-10 renal, greater than 100 µM. Besides, the concentration for total growth inhibition (TGI) in the test on A498 renal, in the test with HOP-62 NSCLC, in the test on MOLT-4 leukemia and in the test on TK-10 renal was greater than 100 µM each time.
On to `C[C@H]1C=C2C(=O)O[C@H]3CC[C@@H](C1)[C@@]23O`, for which the TGI was 22.5 µM in the test on A498 renal; 6.05 µM in the test with CCRF-CEM leukemia; 19 µM in the test with IGROV1 ovarian; greater than 100 µM in the test with MOLT-4 leukemia; 16.6 µM in the test with SK-MEL-5 melanoma; 8 µM in the test with TK-10 renal. This compound had a TGI with UO-31 renal of 32.1 µM.
With `O=C1NC2C(O)CCCCC2C12CCCCC2` (stereo unspecified), the TGI in the test on A498 renal, in the test on HOP-62 NSCLC, with IGROV1 ovarian, in the test with MOLT-4 leukemia, with SK-MEL-5 melanoma and with UO-31 renal was greater than 100 µM in each case.
`CC[PH+](CC)CC.[Cl][Au]`: the GI50 in the test with CCRF-CEM leukemia was 0.216 µM; with HOP-62 NSCLC, 19.4 µM; in the test on IGROV1 ovarian, 2.64 µM; in the test with MOLT-4 leukemia it was 0.682 µM; in the test with SK-MEL-5 melanoma it was 1.14 µM; in the test on TK-10 renal it was 2 µM. Moreover, the GI50 with UO-31 renal was 6.21 µM. The concentration for total growth inhibition (TGI) with CCRF-CEM leukemia amounted to 1.33 µM; with HOP-62 NSCLC, 33.7 µM; with IGROV1 ovarian, 7.15 µM; in the test with MOLT-4 leukemia, 2.69 µM; with SK-MEL-5 melanoma, 2.44 µM; in the test on TK-10 renal, 3.51 µM. Besides, the total growth inhibition concentration (TGI) in the test on UO-31 renal was 10.7 µM.
Regarding `CCC[CH2][Sn]1([CH2]CCC)[S]CC[N]1S(=O)(=O)c1ccc(C)cc1`, the GI50 in the test on HOP-62 NSCLC was 2.22 µM; with IGROV1 ovarian, 1.7 µM; with MOLT-4 leukemia, 1.14 µM; in the test with SK-MEL-5 melanoma it was 1.68 µM; in the test with TK-10 renal it was 1.64 µM; with UO-31 renal it was 1.14 µM. Further, the total growth inhibition concentration (TGI) amounted to 3.83 µM with HOP-62 NSCLC; 3.27 µM in the test with IGROV1 ovarian; 4.04 µM in the test with MOLT-4 leukemia; 3.2 µM in the test on SK-MEL-5 melanoma; 3.04 µM in the test on TK-10 renal; 2.35 µM in the test with UO-31 renal.
